From ChEMBL document CHEMBL1201862, “PubChem BioAssay data set” (2004)
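Five compound concentrations were applied to cells in 96-well plates for 48 hours; endpoints were derived by simple linear interpolation of the resulting dose-response curve. The concentration for 50% growth inhibition is given as GI50.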 The source made the active and inactive calls. Rule as the data show it: active = GI50 up to about 1.1 µM and inactive = higher.

Experiments:
Test in all cases: NCI tumour cell line growth inhibition, 48 h
A498 = test system: A498
A549 = test system: A549
HCC 2998 = test system: HCC 2998
HCT-15 = test system: HCT-15
HOP-62 = test system: HOP-62
HT-29 = test system: HT-29
K562 = test system: K562
LOX IMVI = test system: LOX IMVI
Malme-3M = test system: Malme-3M
NCI-H226 = test system: NCI-H226
OVCAR-5 = test system: OVCAR-5
OVCAR-8 = test system: OVCAR-8
SF-268 = test system: SF-268
SF-539 = test system: SF-539
SK-MEL-28 = test system: SK-MEL-28
SK-MEL-2 = test system: SK-MEL-2
SK-MEL-5 = test system: SK-MEL-5
SNB-78 = test system: SNB-78
TK-10 = test system: TK-10
SK-OV-3 = test system: SK-OV-3

Compound | GI50 (A498) | GI50 (A549) | GI50 (HCC 2998) | GI50 (HCT-15) [µM] | GI50 (HOP-62) | GI50 (HT-29) | GI50 (K562) | GI50 (LOX IMVI) | GI50 (Malme-3M) | GI50 (NCI-H226) | GI50 (OVCAR-5) | GI50 (OVCAR-8) | GI50 (SF-268) | GI50 (SF-539) | GI50 (SK-MEL-28) | GI50 (SK-MEL-2) | GI50 (SK-MEL-5) | GI50 (SNB-78) | GI50 (TK-10) | GI50 (SK-OV-3)
COc1cc(/C=C\c2ccccc2)cc(OC)c1OC | 5.24 µM (inactive) | 5.28 µM (inactive) | 11.8 µM (inactive) | 2.6 | 2.9 µM (inactive) | 2.75 µM (inactive) | 0.514 µM (active) | 4.6 µM (inactive) | 2.95 µM (inactive) | 4.2 µM (inactive) | 10.3 µM (inactive) | 3.69 µM (inactive) | 6.55 µM (inactive) | 2.56 µM (inactive) | 6.28 µM (inactive) | 4.07 µM (inactive) | 3.08 µM (inactive) | 7.83 µM (inactive) | 3.94 µM (inactive) | 
O=[N+]([O-])C1(CO)COC2(OC1)c1ccccc1-c1ccccc12 | > 100 µM (inactive) | > 100 µM (inactive) | > 100 µM (inactive) | 59.4 | > 100 µM (inactive) | > 63.5 µM (inactive) | 64.7 µM (inactive) | 45.6 µM (inactive) | 48.5 µM (inactive) | > 100 µM (inactive) | > 100 µM (inactive) | > 78.3 µM (inactive) | 52.8 µM (inactive) | > 69.3 µM (inactive) | > 100 µM (inactive) | > 100 µM (inactive) | > 100 µM (inactive) | > 100 µM (inactive) | > 100 µM (inactive) | > 100 µM (inactive)
C#CCN(N=O)C(=O)NCCCC(NC(C)=O)C(=O)NCc1ccccc1 (stereo unspecified) | > 100 µM (inactive) | > 100 µM (inactive) | > 100 µM (inactive) | > 100 | > 100 µM (inactive) | > 100 µM (inactive) | 43.3 µM (inactive) | 82.2 µM (inactive) | > 100 µM (inactive) | > 100 µM (inactive) | > 100 µM (inactive) | > 100 µM (inactive) | > 100 µM (inactive) | 96.2 µM (inactive) | > 100 µM (inactive) |  | > 100 µM (inactive) | > 100 µM (inactive) | > 100 µM (inactive) | > 100 µM (inactive)
CCCCCCCC(=O)OC(CBr)COC(=O)C(C)(C)C (stereo unspecified) | > 100 µM (inactive) | > 100 µM (inactive) | > 100 µM (inactive) | > 100 | > 100 µM (inactive) | > 88.5 µM (inactive) | 32.5 µM (inactive) | > 63.2 µM (inactive) | > 100 µM (inactive) | > 100 µM (inactive) | > 100 µM (inactive) | > 100 µM (inactive) | > 100 µM (inactive) | > 10 µM (inactive) | > 100 µM (inactive) | > 100 µM (inactive) | > 100 µM (inactive) | > 100 µM (inactive) | > 100 µM (inactive) | > 100 µM (inactive)
O=[N+]([O-])c1cccc2nc3ccccc3c(NCCN(CCO)CCO)c12 | 0.00501 µM (active) | 0.00272 µM (active) | 0.00235 µM (active) | 0.0108 | 0.00282 µM (active) | 0.00256 µM (active) |  | 0.00701 µM (active) | 0.00296 µM (active) | 0.00102 µM (active) | 0.00501 µM (active) | 0.00351 µM (active) | 0.00423 µM (active) | 0.00689 µM (active) |  | 0.00527 µM (active) | 0.00192 µM (active) | 0.0221 µM (active) | 0.00836 µM (active) | 0.00989 µM (active)
c1coc(CNc2[nH]cnc3nncc2-3)c1 | > 100 µM (inactive) | > 100 µM (inactive) | > 100 µM (inactive) | > 100 | > 100 µM (inactive) | > 100 µM (inactive) | 57.8 µM (inactive) | > 100 µM (inactive) | > 100 µM (inactive) | > 100 µM (inactive) | > 100 µM (inactive) | > 100 µM (inactive) | > 100 µM (inactive) | > 100 µM (inactive) | > 100 µM (inactive) | > 100 µM (inactive) | > 100 µM (inactive) | > 100 µM (inactive) | > 100 µM (inactive) | > 100 µM (inactive)
OCC[N+]12CCCN1CCC2 | > 100 µM (inactive) | > 100 µM (inactive) | > 100 µM (inactive) | > 100 | > 100 µM (inactive) | > 100 µM (inactive) | > 100 µM (inactive) | > 100 µM (inactive) | > 100 µM (inactive) | > 100 µM (inactive) | > 100 µM (inactive) | > 100 µM (inactive) | > 100 µM (inactive) | > 100 µM (inactive) | > 100 µM (inactive) | > 100 µM (inactive) | > 100 µM (inactive) | > 100 µM (inactive) | > 100 µM (inactive) | > 100 µM (inactive)
